d = 2'-deoxy (DNA); r = 2'-OH (RNA) A value given as a limit tells only on which side of the number the result lay.

Holding throughout (assay type): cell-based, human
One data set concerns glioma cell line U87MG. Nature of the data set: Cell viability by CCK-8 method, U87MG. As to conditions: 10 nM, 72 h, FIG. 7B. The protocol:
8 LHPP promoter-targeting saRNAs were individually transfected into cancer cells at 10 nM for 72 h. In FIG. 7A, the expression level of LHPP mRNA was analyzed by RT-qPCR. In FIG. 7B, cell viability in the saRNA treatment group was evaluated by the CCK-8 method and recorded as a percentage relative to the viability of cells in a control (Mock) treatment group.
The cell viability was detected by the following CCK-8 method: the cCells were plated into a 96-well plate at 3-5×10^3 cells/well, cultured overnight, and transfected with the oligonucleotide duplexes. After 72 hour of transfection, 10 uL of CCK-8 solution (Dojindo Molecular Technologies) was added into each well. After 1 hour of incubation at 37° C., a microplate reader was used to measure absorbances at 450 nm.
In order to further evaluate the effect of LHPP saRNAs in inducing the mRNA expression of the LHPP gene and inhibiting the proliferation of cancer cells, eight screened saRNAs (RAG7-132, RAG7-133, RAG7-139, RAG7-177, RAG7-178, RAG7-694, RAG7-707 and RAG7-892) each were transfected into the liver cancer cell lines Huh7 (Medical Cell Resource Center, Tohoku University, Japan), HepG2 (ATCC), Hep3B (ATCC), Li-7 (Medical Cell Resource Center, Tohoku University, Japan) and SK-HEP-1 (ATCC), a lung cancer cell line A549 (ATCC), a bladder cancer cell line T24 (ATCC), a prostatic cancer cell line PC3 (ATCC), and a glioma cell line U87MG (ATCC). The mRNA expression and cell viability of the transfected cells were measured.

Another data set concerns LHPP gene. As to the kind of experiment: High-throughput screening of saRNAs targeting LHPP promoter: LHPP mRNA by one-step RT-qPCR in Huh7 cells. As to conditions: 10 nM saRNA, 72 hours, relative to control (Mock). The gist of the method: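 Huh7 cells were transfected with 10 nM saRNA using RNAiMax and lysed 72 h later. LHPP mRNA was quantified by one-step RT-qPCR in triplicate wells. Expression was normalised to HPRT1 and TBP and given as fold change versus mock-transfected cells.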

The subject of another data set is SK-HEP-1 cells. Nature of the data set: Cell viability by CCK-8 method, SK-HEP-1. Particulars: SK-HEP-1, 10 nM, 72 h, FIG. 6B. The protocol: (§1) 8 LHPP promoter-targeting saRNAs were individually transfected into liver cancer cells at 10 nM for 72 h. In FIG. 6A, the expression level of LHPP mRNA was analyzed by RT-qPCR. In FIG. 6B, cell viability in the saRNA treatment group was evaluated by the CCK-8 method and recorded as a percentage relative to the viability of cells in a control (Mock) treatment group.
(§2) The cell viability was detected by the following CCK-8 method: the cCells were plated into a 96-well plate at 3-5×10^3 cells/well, cultured overnight, and transfected with the oligonucleotide duplexes. After 72 hour of transfection, 10 uL of CCK-8 solution (Dojindo Molecular Technologies) was added into each well. After 1 hour of incubation at 37° C., a microplate reader was used to measure absorbances at 450 nm. […]

A further data set concerns U87MG cells. As to the kind of experiment: saRNA in combination with chemical drugs, CCK-8 viability and combination index (Compusyn), U87MG. How it is done:
The sRNAs were transfected into cancer cells at different concentrations in combination with different chemical drugs. In FIG. 9A, cell viability in the saRNA treatment group was evaluated by the CCK-8 method and recorded as a percentage relative to the viability of cells in a control (Mock) treatment group. In FIG. 9B, Compusyn© version 1.0 software was used to draw a combination index graphs; and to calculate combination index values as shown in FIG. 9C.
The compounds used in the study included: Sorafenib (Sora) (SELLECK, S1040), Lenvatinib (Lenv) (SELLECK, S1164), Regorafenib (Rego) (SELLECK, S1178), and Cabozantinib (Cabo) (SELLECK, S1119). Cells were transfected with each candidate saRNAs at varying concentration gradients for 24 hours. Thereafter, the aforementioned compounds were added to the transfected cells at a concentration of 5 μM and the cells were incubated with the compounds for 48 hours. Cell viability was measured using the CCK-8 method. Compusyn© version 1.0 software (ComboSyn, Inc. Paramus, N.J., USA) was used to analyze the combination index (CI) of drugs, wherein CI<1 represented a synergistic effect, CI=1 represented an additive effect, and CI>1 represented an antagonistic effect.

Another data set concerns HepG2 cells. Nature of the data set: Cell viability by CCK-8 method, HepG2. As to conditions: HepG2, 10 nM, 72 h, FIG. 6B. How it is done:
as §1, §2

Regarding “RAG7-133: saRNA duplex; sense GCUCUUUGUCCGCUGAUCUTT (SEQ ID NO: 1), antisense AGAUCAGCGGACAAAGAGCTT (SEQ ID NO: 165) (sugars from the 5' end r19 d2, backbone not given here)”, the “cell proliferation (cell viability, CCK-8)” value in the data set with glioma cell line U87MG, with SK-HEP-1 cells and in the data set on HepG2 cells was “inhibited cell proliferation” throughout. Further, the “Fold of changes in relative LHPP mRNA expression level” value with LHPP gene is on record as 2.54 fold. The “Fold of changes in relative LHPP mRNA expression level (log2)” value in the data set with LHPP gene came out at 1.35 log2. Besides, the “combination index (CI)” value in the data set with U87MG cells (saRNA 1.0 nM to 100 nM with Cabozantinib 5 μM) is given as below 0.1; in the data set on U87MG cells (saRNA 1.0 nM to 100 nM with Lenvatinib 5 μM), below 0.1; in the data set on U87MG cells (saRNA with all the four compounds (Sorafenib, Lenvatinib, Regorafenib, Cabozantinib) 5 μM) it was below 1.
